Measured values: PMC12211128, “Safety, tolerability, pharmacokinetic and pharmacodynamic effects of the muscarinic M1 positive allosteric modulator VU0467319 for Alzheimer’s disease: a single ascending-dose study in healthy participants” (Alzheimer's Research & Therapy, 2025)
Marks after values point to notes of the source that are not given here.

Experiments:
healthy participants [1] = experiment: Visual oddball ERP task; assay type: in vivo, human; settings: for Mean amplitude over the parietal cortex, Visual Oddball, Standard trials / Mean amplitude over the parietal cortex, Visual Oddball, Target trials: mean (SD)
Protocol: (§1) Following the cognitive battery, an electrophysiology recording was set up. Visual and auditory ERPs were recorded using a 128-channel Geodesic sensor net (EGI, Inc., Eugene, OR; [37, 38]). The electrophysiological recording was sampled at 250 Hz with filters set at 0.1–100 Hz. During data collection, all electrodes were referenced to vertex (Cz). The recording session lasted approximately 30 min.
(§2) Auditory and visual oddball tasks were performed to assess attention in auditory and visual modalities. In the auditory task, a pair of two pure tones (single formant) at 1000 and 1500 Hz were the stimuli. In the visual task, the stimuli were a pair of letters (X & O). The assignment of stimuli to standard and target conditions (70% & 30% of the trials respectively), was counterbalanced across participants. Each participant was asked to press a different button using their preferred hand upon presentation of the standard and the target stimulus. On average, auditory and visual tasks lasted 6–7 min each.
(§3) ERP processing and Analysis: Single-trial ERPs were derived by extracting a 100-ms pre-stimulus baseline and a 900 ms post-stimulus interval. The trials were screened for ocular and motor artifacts using automated procedures with standard threshold settings (NetStation 4.4, EGI, Inc) and verified using manual review. Data for electrodes characterized by consistent artifacts were replaced using the spherical spline interpolation algorithm. If more than 15 electrodes within a trial were noisy, the entire trial was discarded. Remaining artifact-free trials were averaged separately for each condition (standard vs. oddball; novel vs. repeated images), re-referenced to an average reference, and baseline corrected. For individual participant’s data to be included in the analysis, each condition average had to have a minimum of 10 artifact-free trials.
(§4) Statistical analysis focused on a priori selected electrode clusters corresponding to frontal, central, and parietal midline locations (Fz, Cz, Pz in 10–20 notation), confirmed using spatial principal components analysis. Mean amplitudes were calculated within 250–400 ms (frontal P3a), 300–500 ms (parietal P300), and 500–800 ms (parietal P600) temporal windows. These a-priori selected windows were confirmed using temporal principal components analysis.
(§5) Analyses for the auditory and visual oddball ERPs focused on the parietal (P300) and frontal (P3a) responses to standard and target stimuli. Differences in the amplitude, latency, and scalp topography of the responses were examined. […] For the incidental memory paradigm, differences in the mean amplitude of the parietal P300/P600 responses to repeated vs. novel presentations. The amplitude of the parietal P300/P600 waveform measures stimulus recognition. A larger positive amplitude for repeated compared to novel images indicates spontaneous formation of a memory trace.
(§6) Auditory and visual oddball tasks were performed to assess attention in auditory and visual modalities (Comerchero & Polich, 1999; Polich, 2007). In the auditory task, a pair of two pure tones (single formant) at 1000 and 1500 Hz were the stimuli. Tones were equated in duration (300 ms) and rise/decay times. Tones were presented at 75 dB SPL (measured at the ear) through a speaker positioned 1 meter in front of the participant. In the visual task, the stimuli were a pair of letters (X & O). All stimuli were presented in random order for 500 ms in the center of a computer monitor positioned 1 meter in front of the participant. For both auditory and visual tasks, 200 trials were presented with the inter-stimulus interval varying randomly between 1000-1300 ms to prevent habituation to stimulus onset. The assignment of stimuli to standard and target conditions (70% & 30% of the trials respectively), was counterbalanced across participants. […]

healthy participants [2] = experiment: Auditory oddball ERP task; assay type: in vivo, human; settings: for Auditory oddball P300 amplitude, targets vs standards, effect size d: post-dose session; for Mean amplitude over the parietal cortex, Auditory Oddball, Standard trials / Mean amplitude over the parietal cortex, Auditory Oddball, Target trials: mean (SD)
Protocol: as §1, §2, §3, §4, §5, §6

[3] = SAD study, 120mg, Post-Drug, n = 5
[4] = SAD study, 120mg, Pre-Drug, n = 5
[5] = SAD study, 240mg, Post-Drug, n = 5
[6] = VU319 120 mg, fasting, post-drug session, n = 9
[7] = VU319 120 mg, fasting, pre-drug session, n = 9
[8] = VU319 120 mg, fed, post-drug session, n = 9
[9] = VU319 120 mg, fed, pre-drug session, n = 9

## Cn1cc2c(-c3cc(F)c(CN4Cc5ncccc5C4=O)c(F)c3)cccc2n1 [VU319]
Healthy participants [1]; 120 mg, fasted condition
  Visual oddball P300 amplitude, targets vs standards: no difference
Healthy participants [1]; 120 mg, fed, post-dose session, p = 0.061
  Visual oddball P300 amplitude, targets vs standards, effect size d: 0.73
Healthy participants [1]; 120 mg, fed, pre-dose session, p = 0.039
  Visual oddball P300 amplitude, targets vs standards, effect size d: 0.82
Healthy participants [1]; 400 mg, p = 0.05
  Visual oddball parietal amplitude, target vs standard, post- vs pre-dose, effect size d: 1.28
Healthy participants [1]; 600 mg, t < 1
  Visual oddball parietal amplitude, target vs standard, post- vs pre-dose effect: not found
Healthy participants [1]; SAD study, 60 mg, Post-Drug
  Mean amplitude over the parietal cortex, Visual Oddball, Standard trials: -0.66 (1.57) µV
  Mean amplitude over the parietal cortex, Visual Oddball, Target trials: 1.36 (0.91) µV
Healthy participants [1]; SAD study, 60 mg, Pre-Drug
  Mean amplitude over the parietal cortex, Visual Oddball, Standard trials: -0.13 (1.23) µV
  Mean amplitude over the parietal cortex, Visual Oddball, Target trials: 1.19 (1.9) µV
Healthy participants [1]; [3]
  Mean amplitude over the parietal cortex, Visual Oddball, Standard trials: 0.01 (1.05)^# µV
  Mean amplitude over the parietal cortex, Visual Oddball, Target trials: 1.5 (1.26)^# µV
Healthy participants [1]; [4]
  Mean amplitude over the parietal cortex, Visual Oddball, Standard trials: 0.99 (1.12)^# µV
  Mean amplitude over the parietal cortex, Visual Oddball, Target trials: 2.71 (1.58)^# µV
Healthy participants [1]; [5]
  Mean amplitude over the parietal cortex, Visual Oddball, Standard trials: 1.02 (1.44)^# µV
  Mean amplitude over the parietal cortex, Visual Oddball, Target trials: 2.2 (2.28)^# µV
Healthy participants [1]; SAD study, 240 mg, Pre-Drug
  Mean amplitude over the parietal cortex, Visual Oddball, Standard trials: 0.32 (1.04) µV
  Mean amplitude over the parietal cortex, Visual Oddball, Target trials: 1.93 (1.88) µV
Healthy participants [1]; SAD study, 400 mg, Post-Drug
  Mean amplitude over the parietal cortex, Visual Oddball, Standard trials: 1.48 (0.73) µV
  Mean amplitude over the parietal cortex, Visual Oddball, Target trials: 2.7 (1.92) µV
Healthy participants [1]; SAD study, 400 mg, Pre-Drug
  Mean amplitude over the parietal cortex, Visual Oddball, Standard trials: 1.04 (1.03) µV
  Mean amplitude over the parietal cortex, Visual Oddball, Target trials: 1.75 (1.5) µV
Healthy participants [1]; SAD study, 600 mg, Post-Drug
  Mean amplitude over the parietal cortex, Visual Oddball, Standard trials: 1.47 (1.1) µV
  Mean amplitude over the parietal cortex, Visual Oddball, Target trials: 3.1 (2.23) µV
Healthy participants [1]; SAD study, 600 mg, Pre-Drug
  Mean amplitude over the parietal cortex, Visual Oddball, Standard trials: 1.46 (2.51) µV
  Mean amplitude over the parietal cortex, Visual Oddball, Target trials: 3.46 (2.31) µV
Healthy participants [1]; [6]
  Mean amplitude over the parietal cortex, Visual Oddball, Standard trials: -0.16 (1.73) µV
  Mean amplitude over the parietal cortex, Visual Oddball, Target trials: 0.72 (3.1) µV
Healthy participants [1]; [7]
  Mean amplitude over the parietal cortex, Visual Oddball, Standard trials: -0.16 (1.28) µV
  Mean amplitude over the parietal cortex, Visual Oddball, Target trials: 0.71 (1.6) µV
Healthy participants [1]; [8]
  Mean amplitude over the parietal cortex, Visual Oddball, Standard trials: 0.25 (0.62) µV
Healthy participants [1]; [9]
  Mean amplitude over the parietal cortex, Visual Oddball, Standard trials: -0.29 (1.17) µV
  Mean amplitude over the parietal cortex, Visual Oddball, Target trials: 0.91 (1.49) µV
Healthy participants [2]; 60 mg, p = 0.002
  Auditory oddball parietal amplitude, target vs standard, post- vs pre-dose, effect size d: 1.32
Healthy participants [2]; 120 mg, SAD, p = 0.18
  Auditory oddball parietal amplitude, target vs standard, post- vs pre-dose, effect size d: 0.64
Healthy participants [2]; 120 mg, fasted, p = 0.033
  Auditory oddball P300 amplitude, targets vs standards, effect size d: 0.8
Healthy participants [2]; 120 mg, fed, p = 0.25
  Auditory oddball P300 amplitude, targets vs standards, effect size d: 0.85
Healthy participants [2]; SAD study, 60 mg, Post-Drug
  Mean amplitude over the parietal cortex, Auditory Oddball, Standard trials: 1.31 (1.02) µV
  Mean amplitude over the parietal cortex, Auditory Oddball, Target trials: 3.69 (1.83) µV
Healthy participants [2]; SAD study, 60 mg, Pre-Drug
  Mean amplitude over the parietal cortex, Auditory Oddball, Standard trials: 1.23 (0.96) µV
  Mean amplitude over the parietal cortex, Auditory Oddball, Target trials: 2.0 (1.32) µV
Healthy participants [2]; SAD study, 120 mg, Post-Drug
  Mean amplitude over the parietal cortex, Auditory Oddball, Standard trials: 0.85 (1.41) µV
  Mean amplitude over the parietal cortex, Auditory Oddball, Target trials: 3.18 (1.24) µV
Healthy participants [2]; SAD study, 120 mg, Pre-Drug
  Mean amplitude over the parietal cortex, Auditory Oddball, Standard trials: 1.83 (1.04) µV
  Mean amplitude over the parietal cortex, Auditory Oddball, Target trials: 3.23 (1.85) µV
Healthy participants [2]; SAD study, 240 mg, Post-Drug
  Mean amplitude over the parietal cortex, Auditory Oddball, Standard trials: 1.04 (1.54) µV
  Mean amplitude over the parietal cortex, Auditory Oddball, Target trials: 2.42 (1.53) µV
Healthy participants [2]; SAD study, 240 mg, Pre-Drug
  Mean amplitude over the parietal cortex, Auditory Oddball, Standard trials: 1.34 (1.02) µV
  Mean amplitude over the parietal cortex, Auditory Oddball, Target trials: 2.94 (1.57) µV
Healthy participants [2]; SAD study, 400 mg, Post-Drug
  Mean amplitude over the parietal cortex, Auditory Oddball, Standard trials: 0.48 (0.92) µV
  Mean amplitude over the parietal cortex, Auditory Oddball, Target trials: 2.12 (0.34) µV
Healthy participants [2]; SAD study, 400 mg, Pre-Drug
  Mean amplitude over the parietal cortex, Auditory Oddball, Standard trials: 0.66 (1.09) µV
  Mean amplitude over the parietal cortex, Auditory Oddball, Target trials: 1.7 (0.67) µV
Healthy participants [2]; SAD study, 600 mg, Post-Drug
  Mean amplitude over the parietal cortex, Auditory Oddball, Standard trials: 1.84 (1.22) µV
  Mean amplitude over the parietal cortex, Auditory Oddball, Target trials: 4.31 (2.13) µV
Healthy participants [2]; SAD study, 600 mg, Pre-Drug
  Mean amplitude over the parietal cortex, Auditory Oddball, Standard trials: 0.74 (1.24) µV
  Mean amplitude over the parietal cortex, Auditory Oddball, Target trials: 3.08 (2.61) µV
Healthy participants [2]; [6]
  Mean amplitude over the parietal cortex, Auditory Oddball, Standard trials: 1.17 (1.66) µV
  Mean amplitude over the parietal cortex, Auditory Oddball, Target trials: 2.56 (2.38) µV
Healthy participants [2]; [7]
  Mean amplitude over the parietal cortex, Auditory Oddball, Standard trials: 1.09 (1.78) µV
  Mean amplitude over the parietal cortex, Auditory Oddball, Target trials: 2.11 (2.11) µV
Healthy participants [2]; [8]
  Mean amplitude over the parietal cortex, Auditory Oddball, Standard trials: -0.07 (0.96) µV
  Mean amplitude over the parietal cortex, Auditory Oddball, Target trials: 0.8 (1.11) µV
Healthy participants [2]; [9]
  Mean amplitude over the parietal cortex, Auditory Oddball, Standard trials: 0.51 (1.65) µV
  Mean amplitude over the parietal cortex, Auditory Oddball, Target trials: 2.32 (1.46) µV
